Entries after “also recorded” stand apart in the source; their conditions may differ. Like-named read-outs stand apart in the source and are kept apart here.
Experiments:
APE-1 = APE-1 (Homo sapiens (Human), UniProt P27695); details: cited from earlier work
[1] = molecular target: human L1 EN domain (1-239) (Homo sapiens (Human), UniProt O00370); experiment: plasmid nicking L1 EN activity biochemical assay
L1 EN = L1 EN (Homo sapiens (Human), UniProt O00370); experiment: fluorescent oligonucleotide nicking assay; type: biochemical
L1 retrotransposition = L1 retrotransposition dual-luciferase reporter cellular assay in HeLa-M2 cells; type: cell-based, human; details: for Cellular assay: retrotransposition efficiency (mean ± SD): Table 2
[2] = tested on: full-length L1 (ORF1 and ORF2) in HeLa Tet-On cells; experiment: L1-induced DNA damage, γ-H2AX immunofluorescence, full-length L1 expression; type: cell-based, human
[3] = tested on: senescent human diploid fibroblasts (LF1); experiment: RT-qPCR of inflammatory markers in replicative senescent cells; type: cell-based
[4] = solubility remark in cellular assay column; details: reason for no cellular data
[5] = tested on: L1 EN domain in HeLa Tet-On cells; experiment: L1-induced DNA damage, γ-H2AX immunofluorescence and neutral comet assay, EN domain-only expression; type: cell-based, human
[6] = tested on: senescent human diploid fibroblasts (LF1); experiment: RNA-seq transcriptomic analysis of senescent cells; type: cell-based; details: IFN gene set and aging gene set
HeLa cells = details: human
[7] = in vitro assays with purified EN

L1 EN, sequence (O00370 1-239): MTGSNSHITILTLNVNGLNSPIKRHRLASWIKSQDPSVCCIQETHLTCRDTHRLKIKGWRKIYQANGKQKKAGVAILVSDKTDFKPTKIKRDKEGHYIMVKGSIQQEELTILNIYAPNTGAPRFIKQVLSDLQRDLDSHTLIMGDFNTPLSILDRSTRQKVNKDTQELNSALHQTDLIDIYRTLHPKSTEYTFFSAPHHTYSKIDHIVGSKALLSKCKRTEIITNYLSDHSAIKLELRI
human L1 EN domain (1-239), sequence (O00370 1-239): as above
APE-1, sequence (P27695 whole entry, the tested form may be a part): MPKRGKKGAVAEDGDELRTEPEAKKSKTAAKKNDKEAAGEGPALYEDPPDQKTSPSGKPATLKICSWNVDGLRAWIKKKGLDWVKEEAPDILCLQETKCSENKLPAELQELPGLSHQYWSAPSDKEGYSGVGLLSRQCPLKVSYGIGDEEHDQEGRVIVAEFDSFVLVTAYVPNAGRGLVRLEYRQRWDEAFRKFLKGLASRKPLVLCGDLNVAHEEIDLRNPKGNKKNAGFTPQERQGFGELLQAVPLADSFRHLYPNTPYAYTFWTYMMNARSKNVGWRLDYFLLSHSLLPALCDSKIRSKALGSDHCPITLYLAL

CCn1c2ccccc2c2cc(/C=N\Nc3cc(C)nc4cc5c(cc34)OCO5)ccc21 [AD1, reference compound]
Ki (APE-1): 0.12 µM | L1 EN inhibition in the biochemical assay (in words) [1]: did not inhibit the L1 EN | Biochemical assay: maximum inhibition ([1]; plasmid nicking assay): No inhibition

O=C(O)[C@H](CCCCNc1ccc([N+](=O)[O-])cc1[N+](=O)[O-])Nc1ccc([N+](=O)[O-])cc1[N+](=O)[O-] [AD2]
in vitro activity against EN (in words) (L1 EN): clear activity in vitro | Ki (APE-1): 13 µM | Biochemical assay: concentration at maximum inhibition [1]: 1 mM FIG. 2B | Biochemical assay: maximum inhibition [1]: 100% inhibition at | L1 EN inhibition in the biochemical assay (in words) [1]: effective against the L1 EN | effect on retrotransposition in the cellular reporter assay (in words) (L1 retrotransposition): did not significantly impact retrotransposition in cells

C/C(C[C@H](c1ccccc1)c1c(O)c2ccccc2oc1=O)=N\Nc1ccc([N+](=O)[O-])cc1[N+](=O)[O-] [AD3]
inhibition of L1-induced DNA damage (in words) [2]: best inhibition | effect on inflammatory markers in senescent cells (in words) [3]: show efficacy | Biochemical assay: concentration at maximum inhibition [1]: 250 μM FIG. 2C | Biochemical assay: maximum inhibition [1]: 100% inhibition at | effect on retrotransposition in the cellular reporter assay (in words) (L1 retrotransposition): best inhibition in the retrotransposition assay

O=[N+]([O-])c1ccc(Nc2ccc(Nc3ccccc3)c(S(=O)(=O)O)c2)c([N+](=O)[O-])c1 [AD4]
Biochemical assay: concentration at maximum inhibition [1]: 1 mM FIG. 2D | Biochemical assay: maximum inhibition [1]: 100% inhibition at

Cc1cc(=O)oc2c3c(ccc12)O/C(=N/Nc1ccc([N+](=O)[O-])cc1[N+](=O)[O-])C3=O [AD5]
solubility (in words) [4]: (poor solubility) | in vitro activity against EN (in words) (L1 EN): clear activity in vitro | Biochemical assay: concentration at maximum inhibition [1]: 50 μM FIG. 2E | Biochemical assay: maximum inhibition [1]: 100% inhibition | effect on retrotransposition in the cellular reporter assay (in words) (L1 retrotransposition): did not significantly impact retrotransposition in cells

Cc1cc([N+](=O)[O-])ccc1NC(=S)NC(=O)C(c1ccccc1)c1ccccc1 [AD6]
Biochemical assay: concentration at maximum inhibition ([1]; plasmid nicking assay): 750 μM FIG. 2F | Biochemical assay: maximum inhibition ([1]; plasmid nicking assay): 90% inhibition at | Cellular assay: retrotransposition efficiency (mean ± SD) (L1 retrotransposition; 10 μM): 10 μM: 79.1

C/C(=N/Nc1ccc([N+](=O)[O-])cc1[N+](=O)[O-])c1ccc(-n2nncc2C(C)(C)C)cc1 [AD7]
in vitro activity against EN (in words) (L1 EN): relatively low efficacy in vitro | Biochemical assay: concentration at maximum inhibition [1]: 500 μM FIG. 2F | Biochemical assay: maximum inhibition [1]: 80% inhibition at | effect on retrotransposition in the cellular reporter assay (in words) (L1 retrotransposition): high activity in the retrotransposition assay

C[C@@H](Nc1ccc([N+](=O)[O-])cc1[N+](=O)[O-])C(=O)O [AD8]
Biochemical assay: concentration at maximum inhibition [1]: 15 mM FIG. 2G | Biochemical assay: maximum inhibition [1]: 100% inhibition at

C[C@H]1C[C@H](C)CN(CCCNc2ccc(C(=O)Nc3ccc(C(F)(F)F)cc3)cc2[N+](=O)[O-])C1 [AD9]
in vitro activity against EN (in words) (L1 EN; [7]): relatively low efficacy in vitro | Biochemical assay: concentration at maximum inhibition ([1]; plasmid nicking assay): 750 μM FIG. 2H | Biochemical assay: maximum inhibition ([1]; plasmid nicking assay): 80% inhibition at | effect on retrotransposition in the cellular reporter assay (in words) (L1 retrotransposition): high activity in the retrotransposition assay

O=C(NC(NC(=O)c1ccccc1)c1cccc([N+](=O)[O-])c1)c1ccccc1 [AD10]
Biochemical assay: concentration at maximum inhibition ([1]; plasmid nicking assay): 100 μM FIG. 21 | Biochemical assay: maximum inhibition ([1]; plasmid nicking assay): 100% inhibition at | Cellular assay: retrotransposition efficiency (mean ± SD) (L1 retrotransposition; 50 μM): 50 μM: 68.9

O=C(CCCCCCCCCCC(=O)Nc1cccc([N+](=O)[O-])c1)Nc1cccc([N+](=O)[O-])c1 [AD11]
inhibition of L1-induced DNA damage (in words) [5]: better efficacy | Biochemical assay: concentration at maximum inhibition [1]: 10.0 μM FIG. 2J | Biochemical assay: maximum inhibition [1]: 100% inhibition at

COc1ccc2c(c1)C(=O)N(CCc1ccc(S(=O)(=O)NC(=O)NC3CCCCC3)cc1)C(=O)C2(C)C [AD12, Gliquidone, reference compound]
inhibition of L1-induced DNA damage (in words) [2]: best inhibition | effect on inflammatory markers in senescent cells (in words) ([3]; 1 month treatment): show efficacy | gene set expression by RNA-seq (in words) [6]: decreased expression | effect on retrotransposition in the cellular reporter assay (in words) (L1 retrotransposition): reduced retrotransposition in the cellular reporter assay; also recorded: high activity in the retrotransposition assay; also recorded: best inhibition in the retrotransposition assay

O=C1c2ccc(Oc3ccc4c(c3)C(=O)N(Nc3ccc([N+](=O)[O-])cc3[N+](=O)[O-])C4=O)cc2C(=O)N1Nc1ccc([N+](=O)[O-])cc1[N+](=O)[O-] [AD13]
Biochemical assay: concentration at maximum inhibition [1]: 500 μM FIG. 2L | Biochemical assay: maximum inhibition [1]: 100% inhibition at | L1 EN inhibition in the biochemical assay (in words) [1]: effective in the biochemical assay

CCC1=C(C)CN(C(=O)NCCc2ccc(S(=O)(=O)NC(=O)N[C@H]3CC[C@H](C)CC3)cc2)C1=O [AD15, Glimepiride, reference compound]
L1 EN inhibition in the biochemical assay (in words) [1]: inhibited L1 EN activity in the biochemical assay | Biochemical assay: concentration at maximum inhibition ([1]; plasmid nicking assay): 2.5 mM FIG. 2N | Biochemical assay: maximum inhibition ([1]; plasmid nicking assay): 100% inhibition at | effect on retrotransposition in the cellular reporter assay (in words) (L1 retrotransposition): reduced retrotransposition in the cellular reporter assay | Cellular assay: retrotransposition efficiency (mean ± SD) (L1 retrotransposition; 50 μM): 50 μM: 17.1

Nn1cnn2c(SCC(=O)Cc3ccc(-c4nc5cc(NC(=O)CSc6nnc7n(N)cnn67)ccc5o4)cc3)nnc12 [AD16]
inhibition of L1-induced DNA damage (in words) ([5]; EN domain-only): better efficacy | L1 EN inhibition in the biochemical assay (in words) [1]: effective in the biochemical assay | Biochemical assay: concentration at maximum inhibition ([1]; plasmid nicking assay): 500 μM FIG. 20 | Biochemical assay: maximum inhibition ([1]; plasmid nicking assay): 50% inhibition at

O=C(Nc1ccc(S(=O)(=O)NCc2ccco2)cc1)c1cc(NS(=O)(=O)c2cccs2)cc(NS(=O)(=O)c2cccs2)c1 [AD18]
in vitro activity against EN (in words) (L1 EN; [7]): clear activity in vitro | L1 EN inhibition in the biochemical assay (in words) [1]: effective in the biochemical assay | Biochemical assay: concentration at maximum inhibition ([1]; plasmid nicking assay): 750 μM FIG. 2Q | Biochemical assay: maximum inhibition ([1]; plasmid nicking assay): 50% inhibition at | effect on retrotransposition in the cellular reporter assay (in words) (L1 retrotransposition): did not significantly impact retrotransposition in cells

COc1ccccc1NC(=O)Nc1nc(Nc2ccc(S(=O)(=O)Nc3nc(C)cc(C)n3)cc2)nc(Oc2cccc(O)c2)n1 [AD19]
L1 EN inhibition in the biochemical assay (in words) [1]: effective in the biochemical assay | Biochemical assay: concentration at maximum inhibition ([1]; plasmid nicking assay): 250 μM FIG. 2R | Biochemical assay: maximum inhibition ([1]; plasmid nicking assay): 75% inhibition at

Cc1ccc(NC(=O)CSc2nc(-c3ccccc3F)nc3c2Cc2c(CO)cnc(C)c2O3)cc1 [AD28]
Toxicity at concentration (HeLa cells): Toxicity at 2.5 μM

O=C(NCCCCCCNC(=O)Nc1cccc([N+](=O)[O-])c1)Nc1cccc([N+](=O)[O-])c1 [AD32]
in vitro activity against EN (in words) (L1 EN): relatively low efficacy in vitro | effect on retrotransposition in the cellular reporter assay (in words) (L1 retrotransposition): high activity in the retrotransposition assay

COc1ccc([N+](=O)[O-])cc1NC(=O)c1ccc2c(c1)N(Cc1cc(C)ccc1C)C(=O)c1ccccc1S2(=O)=O [AD34]
in vitro activity against EN (in words) (L1 EN; [7]): clear activity in vitro | effect on retrotransposition in the cellular reporter assay (in words) (L1 retrotransposition): did not significantly impact retrotransposition in cells

COc1ccc(OC)c(NS(=O)(=O)c2ccc(NS(=O)(=O)c3cccc([N+](=O)[O-])c3)cc2)c1 [AD36]
in vitro activity against EN (in words) (L1 EN; [7]): relatively low efficacy in vitro | effect on retrotransposition in the cellular reporter assay (in words) (L1 retrotransposition): high activity in the retrotransposition assay

O=C(Cn1nc(-c2ccc(Br)cc2)ccc1=O)NC[C@H]1CC[C@H](C(=O)O)CC1 [AD43]
in vitro activity against EN (in words) (L1 EN; [7]): relatively low efficacy in vitro | effect on retrotransposition in the cellular reporter assay (in words) (L1 retrotransposition): high activity in the retrotransposition assay

Reference: patent US20240207249A1, “COMPOSITIONS AND METHODS FOR TREATING, PREVENTING OR REVERSING AGE-ASSOCIATED INFLAMMATION AND DISORDER” (Brown University, priority 2019, published 2024)
